According to PubChem BioAssay (NCI):
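Five compound concentrations were applied to cells in 96-well plates for 48 hours; endpoints were derived by simple linear interpolation of the resulting dose-response curve. TGI marks complete inhibition of growth.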

Assays:
Assay in all cases: DTP human tumour cell line panel, 48 h
HCT-15 colon = tested on: HCT-15 colon
NCI-H460 lung = tested on: NCI-H460 lung
SF-268 CNS = tested on: SF-268 CNS
HOP-62 NSCLC = tested on: HOP-62 NSCLC
HOP-92 NSCLC = tested on: HOP-92 NSCLC
PC-3 prostate = tested on: PC-3 prostate
M14 melanoma = tested on: M14 melanoma
NCI-H23 lung = tested on: NCI-H23 lung
UO-31 renal = tested on: UO-31 renal
TK-10 renal = tested on: TK-10 renal
A549 NSCLC = tested on: A549 NSCLC
OVCAR-5 ovarian = tested on: OVCAR-5 ovarian
NCI-H226 lung = tested on: NCI-H226 lung
UACC-62 melanoma = tested on: UACC-62 melanoma
CCRF-CEM leukemia = tested on: CCRF-CEM leukemia
UACC-257 melanoma = tested on: UACC-257 melanoma
SNB-75 CNS = tested on: SNB-75 CNS
RXF 393 renal = tested on: RXF 393 renal
NCI/ADR-RES ovarian = tested on: NCI/ADR-RES ovarian
COLO 205 colon = tested on: COLO 205 colon
RPMI-8226 leukemia = tested on: RPMI-8226 leukemia
K-562 leukemia = tested on: K-562 leukemia
MOLT-4 leukemia = tested on: MOLT-4 leukemia
SN12C renal = tested on: SN12C renal
EKVX NSCLC = tested on: EKVX NSCLC
DU-145 prostate = tested on: DU-145 prostate
ACHN renal = tested on: ACHN renal
T-47D breast = tested on: T-47D breast
A498 renal = tested on: A498 renal
IGROV1 ovarian = tested on: IGROV1 ovarian
BT-549 breast = tested on: BT-549 breast
OVCAR-8 ovarian = tested on: OVCAR-8 ovarian
NCI-H522 lung = tested on: NCI-H522 lung
HCT-116 colon = tested on: HCT-116 colon
SF-295 CNS = tested on: SF-295 CNS
OVCAR-3 ovarian = tested on: OVCAR-3 ovarian
HT29 colon = tested on: HT29 colon
U251 CNS = tested on: U251 CNS
HL-60(TB) leukemia = tested on: HL-60(TB) leukemia
SK-MEL-2 melanoma = tested on: SK-MEL-2 melanoma
MCF7 breast = tested on: MCF7 breast
CAKI-1 renal = tested on: CAKI-1 renal
SF-539 CNS = tested on: SF-539 CNS
HS 578T breast = tested on: HS 578T breast
SK-OV-3 ovarian = tested on: SK-OV-3 ovarian
OVCAR-4 ovarian = tested on: OVCAR-4 ovarian
SW-620 colon = tested on: SW-620 colon
SNB-19 CNS = tested on: SNB-19 CNS
786-0 renal = tested on: 786-0 renal
MDA-N = tested on: MDA-N
MALME-3M melanoma = tested on: MALME-3M melanoma
SK-MEL-5 melanoma = tested on: SK-MEL-5 melanoma
SK-MEL-28 melanoma = tested on: SK-MEL-28 melanoma
KM12 colon = tested on: KM12 colon
MDA-MB-231 breast = tested on: MDA-MB-231 breast
SR leukemia = tested on: SR leukemia
MDA-MB-435 = tested on: MDA-MB-435
LOX IMVI melanoma = tested on: LOX IMVI melanoma
HCC-2998 colon = tested on: HCC-2998 colon

For `CCOC(=O)Cn1c(C(F)(F)F)nc2nc(Cl)c(Cl)nc21`, the TGI (HCT-15 colon) was > 100 µM, the TGI (NCI-H460 lung) was > 100 µM and the TGI (SF-268 CNS) was > 100 µM. For the same molecule, the TGI (HOP-62 NSCLC) was 60.4 µM, the TGI (HOP-92 NSCLC) was 70.3 µM and the TGI (PC-3 prostate) was > 100 µM. The TGI (M14 melanoma) was > 100 µM, the TGI (NCI-H23 lung) was > 87.4 µM and the TGI (UO-31 renal) was 10.9 µM. The TGI (TK-10 renal) was > 100 µM, the TGI (A549 NSCLC) was > 100 µM and the TGI (OVCAR-5 ovarian) was > 100 µM. For the same molecule, the TGI (NCI-H226 lung) was > 100 µM, the TGI (UACC-62 melanoma) was > 78.4 µM and the TGI (CCRF-CEM leukemia) was > 69.5 µM. For the same molecule, the TGI (UACC-257 melanoma) was 53.4 µM, the TGI (SNB-75 CNS) was > 100 µM and the TGI (RXF 393 renal) was > 100 µM. For the same molecule, the TGI (NCI/ADR-RES ovarian) was > 100 µM, the TGI (COLO 205 colon) was > 100 µM and the TGI (RPMI-8226 leukemia) was 26.7 µM. For the same molecule, the TGI (K-562 leukemia) was > 100 µM, the TGI (MOLT-4 leukemia) was 97.6 µM and the TGI (SN12C renal) was > 100 µM. The TGI (EKVX NSCLC) was 29.4 µM, the TGI (DU-145 prostate) was 13.9 µM and the TGI (ACHN renal) was > 67.9 µM. The TGI (T-47D breast) was > 100 µM, the TGI (A498 renal) was > 74 µM and the TGI (IGROV1 ovarian) was > 76.6 µM. For the same molecule, the TGI (BT-549 breast) was > 100 µM, the TGI (OVCAR-8 ovarian) was > 100 µM and the TGI (NCI-H522 lung) was 58.2 µM. For the same molecule, the TGI (HCT-116 colon) was > 100 µM, the TGI (SF-295 CNS) was > 100 µM and the TGI (OVCAR-3 ovarian) was 54.2 µM. The TGI (HT29 colon) was > 100 µM, the TGI (U251 CNS) was > 100 µM and the TGI (HL-60(TB) leukemia) was 42.9 µM. The TGI (SK-MEL-2 melanoma) was 60.2 µM, the TGI (MCF7 breast) was > 87.4 µM and the TGI (CAKI-1 renal) was 11.5 µM. For the same molecule, the TGI (SF-539 CNS) was > 85.4 µM, the TGI (HS 578T breast) was 87.2 µM and the TGI (SK-OV-3 ovarian) was > 100 µM. For the same molecule, the TGI (OVCAR-4 ovarian) was 30.2 µM, the TGI (SW-620 colon) was > 100 µM and the TGI (SNB-19 CNS) was > 96.2 µM. For the same molecule, the TGI (786-0 renal) was > 100 µM, the TGI (MDA-N) was > 100 µM and the TGI (MALME-3M melanoma) was > 100 µM. For the same molecule, the TGI (SK-MEL-5 melanoma) was 76.9 µM, the TGI (SK-MEL-28 melanoma) was > 100 µM and the TGI (KM12 colon) was 34 µM. For the same molecule, the TGI (MDA-MB-231 breast) was > 100 µM, the TGI (SR leukemia) was > 100 µM and the TGI (MDA-MB-435) was > 100 µM. For the same molecule, the TGI (LOX IMVI melanoma) was > 100 µM.
`NC(=O)NCCCC(NC(=O)OCCCCn1ccc(=O)[nH]c1=O)C(=O)O` (stereo not drawn) was tested, and the TGI (HCT-15 colon) was > 100 µM, the TGI (NCI-H460 lung) was > 100 µM and the TGI (SF-268 CNS) was > 100 µM. The TGI (HOP-62 NSCLC) was > 100 µM, the TGI (HOP-92 NSCLC) was > 100 µM and the TGI (PC-3 prostate) was > 100 µM. For the same molecule, the TGI (M14 melanoma) was > 100 µM, the TGI (NCI-H23 lung) was > 100 µM and the TGI (UO-31 renal) was > 100 µM. The TGI (TK-10 renal) was > 100 µM, the TGI (A549 NSCLC) was > 100 µM and the TGI (OVCAR-5 ovarian) was > 100 µM. For the same molecule, the TGI (NCI-H226 lung) was > 100 µM, the TGI (UACC-62 melanoma) was > 100 µM and the TGI (CCRF-CEM leukemia) was > 100 µM. The TGI (UACC-257 melanoma) was > 100 µM, the TGI (SNB-75 CNS) was > 100 µM and the TGI (RXF 393 renal) was > 100 µM. The TGI (NCI/ADR-RES ovarian) was > 100 µM, the TGI (COLO 205 colon) was > 100 µM and the TGI (RPMI-8226 leukemia) was > 100 µM. The TGI (K-562 leukemia) was > 100 µM, the TGI (MOLT-4 leukemia) was > 100 µM and the TGI (SN12C renal) was > 100 µM. For the same molecule, the TGI (EKVX NSCLC) was > 100 µM, the TGI (DU-145 prostate) was > 100 µM and the TGI (ACHN renal) was > 100 µM. The TGI (T-47D breast) was > 100 µM, the TGI (IGROV1 ovarian) was > 100 µM and the TGI (BT-549 breast) was > 100 µM. For the same molecule, the TGI (HCC-2998 colon) was > 100 µM, the TGI (OVCAR-8 ovarian) was > 100 µM and the TGI (HCT-116 colon) was > 100 µM. The TGI (SF-295 CNS) was > 100 µM, the TGI (OVCAR-3 ovarian) was > 100 µM and the TGI (HT29 colon) was > 100 µM. The TGI (U251 CNS) was > 100 µM, the TGI (HL-60(TB) leukemia) was > 100 µM and the TGI (SK-MEL-2 melanoma) was > 100 µM. The TGI (MCF7 breast) was > 100 µM, the TGI (CAKI-1 renal) was > 100 µM and the TGI (SF-539 CNS) was > 100 µM. The TGI (HS 578T breast) was > 100 µM, the TGI (SK-OV-3 ovarian) was > 100 µM and the TGI (OVCAR-4 ovarian) was > 100 µM. The TGI (SW-620 colon) was > 100 µM, the TGI (SNB-19 CNS) was > 100 µM and the TGI (786-0 renal) was > 100 µM. The TGI (MDA-N) was > 100 µM, the TGI (SK-MEL-28 melanoma) was > 100 µM and the TGI (KM12 colon) was > 100 µM. The TGI (MDA-MB-231 breast) was > 100 µM, the TGI (SR leukemia) was > 100 µM and the TGI (MDA-MB-435) was > 100 µM. For the same molecule, the TGI (LOX IMVI melanoma) was > 100 µM.
